Patent publication US20240174690A1, “ANNULATED 2-AMINO-3-CYANO THIOPHENES AND DERIVATIVES FOR THE TREATMENT OF CANCER” (BOEHRINGER INGELHEIM INTERNATIONAL GMBH, priority 2021, published 2024)
Read-outs that look alike come from different tables or passages of the source.

What was measured:
[1] = target: KRAS (G12C)::SOS1 (Homo sapiens (Human), UniProt P01116, C118S/C51S/C80L/G12C); assay: KRAS::SOS1 AlphaScreen binding assay, KRAS G12C
Summary of the method: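 Compounds (up to 100 μM, eleven fivefold dilutions in duplicate) were incubated 30 min with KRAS 1-169 (10 nM, or 7.5 nM for G12C), GST-SOS1 564-1049 (5 nM for G12D/G12C, 10 nM for others) and 10 μM GDP in PBS buffer with BSA and Tween. Donor/acceptor beads were then added for 60 min at room temperature, and IC50 came from a 4-parameter fit of the AlphaScreen signal.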

[2] = system: NCI-H358 cells; assay: NCI-H358 CTG proliferation assay (120 h) (NSCLC, G12C); format: cell-based, human; conditions: Homo sapiens
Summary of the method: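 NCI-H358 cells (KRAS G12C) were seeded at 2000/well (assay 1) or 200/well (assay 2) in RPMI-1640 + 10% FCS and dosed with a logarithmic series, DMSO-normalized. After 120 h, viability was read by CellTiter-Glo luminescence as percent of DMSO control, with a T0 read at dosing. IC50 came from a four-parameter fit.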

[3] = system: SAS cells; assay: SAS CTG proliferation assay (120 h) (HNSCC, wt amplified); format: cell-based
Summary of the method: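 SAS cells plated at 300 per well in DMEM:F12 with 10% FCS and left overnight, then given compounds acoustically. After 120 h exposure, viability read by CellTiter-Glo as percent of DMSO control. IC50 from four-parameter non-linear regression.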

[4] = assay 2, CTG, read-out: H358 (assay 2) IC50
[5] = assay 1, CTG, read-out: H358 (assay 1) IC50

Sequence of KRAS (G12C)::SOS1 (P01116 other isoform, or with tags, fused parts or gaps G12C/C51S/C80L/C118S): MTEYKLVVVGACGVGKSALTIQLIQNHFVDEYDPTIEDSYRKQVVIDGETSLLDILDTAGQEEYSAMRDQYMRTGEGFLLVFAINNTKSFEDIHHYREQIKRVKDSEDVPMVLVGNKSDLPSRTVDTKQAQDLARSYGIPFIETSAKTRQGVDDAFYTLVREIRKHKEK

| Structure (SMILES) | IC50 [1] | IC50 [2, 4] | IC50 [3] | IC50 [2, 5] |
| --- | --- | --- | --- | --- |
| CC(C)N1CCCN(c2cc(-n3ccnc3)nc(-c3noc4c3CCC[C@@]43CCCc4sc(N)c(C#N)c43)n2)[C@@H](C)C1 [II-169] | 3 nM | 595 nM | 4410 nM |  |
| C[C@H](Oc1cc(-n2cc3ccn([C@@H](C)c4ccccn4)c(=O)c3n2)nc(-c2noc3c2CCC[C@@]32CCCc3sc(N)c(C#N)c32)n1)[C@@H]1CCCN1C [II-205] | 2 nM | 18 nM | 20 nM |  |
| C[C@H](Oc1nc(-c2noc3c2CCC[C@@]32CCCc3sc(N)c(C#N)c32)nc(N2CCNC3(CC3)C2)c1Cl)[C@@H]1C[C@@H](F)CN1C [II-156] | 2 nM | 230 nM | 440 nM |  |
| CO[C@@H]1C[C@@H]([C@H](C)Oc2cc(N3CCN(C)C4(COC4)C3)nc(-c3noc4c3CCC[C@@]43CCCc4sc(N)c(C#N)c43)n2)N(C)C1 [II-153] | 3 nM | 2850 nM | 199 nM |  |
| C[C@H](Oc1cc(-n2cc3ccn(C4CCOCC4)c(=O)c3n2)nc(-c2noc3c2CCC[C@@]32CCCc3sc(N)c(C#N)c32)n1)[C@@H]1CCCN1C [II-206] | 2 nM | 4 nM | 25 nM |  |
| C[C@H](Oc1cc(-n2cc3ccn([C@H]4CCOC4)c(=O)c3n2)nc(-c2noc3c2CCC[C@@]32CCCc3sc(N)c(C#N)c32)n1)[C@@H]1CCCN1C [II-202] | 1 nM | 5 nM | 21 nM |  |
| C[C@H](Oc1cc(-n2cc3ccn(C[C@H]4CCOC4)c(=O)c3n2)nc(-c2noc3c2CCC[C@@]32CCCc3sc(N)c(C#N)c32)n1)[C@@H]1CCCN1C [II-204] | 1 nM | 5 nM | 17 nM |  |
| C[C@H](Oc1cc(-n2ccc(-c3cnccn3)n2)nc(-c2noc3c2CCC[C@@]32CCCc3sc(N)c(C#N)c32)n1)[C@@H]1CCCN1C [II-130] | 2 nM | 28 nM | 176 nM | 25 nM |
| C[C@H](Oc1cc(-n2ccc(-c3cn(C4CCOCC4)nn3)n2)nc(-c2noc3c2CCC[C@@]32CCCc3sc(N)c(C#N)c32)n1)[C@@H]1CCCN1C [II-210] | 2 nM | 2 nM | 14 nM |  |
| C[C@H](Oc1cc(-c2ccn([C@H]3CCOC3)n2)nc(-c2noc3c2CCC[C@@]32CCCc3sc(N)c(C#N)c32)n1)[C@@H]1CCCN1C [II-127] | 2 nM | 400 nM | 18 nM |  |
| C[C@@H]1CN(c2nc(-c3noc4c3CCC[C@@]43CCCc4sc(N)c(C#N)c43)nc(O[C@@H](C)[C@@H]3C[C@@H](F)CN3C)c2F)CC2(CC2)N1 [II-158] | 2 nM | 58 nM | 585 nM |  |
| C[C@H](Oc1cc(-n2cc3c(n2)CN(C)C3)nc(-c2noc3c2CCC[C@@]32CCCc3sc(N)c(C#N)c32)n1)[C@@H]1CCCN1C [II-174] | 2 nM | 112 nM | 248 nM |  |
| CO[C@H]1CCN(C)[C@@H]1[C@H](C)Oc1cc(N2CCN(C)C3(CC3)C2)nc(-c2noc3c2CCC[C@@]32CCCc3sc(N)c(C#N)c32)n1 [II-186] | 3 nM | 273 nM | 532 nM |  |
| CO[C@H]1CCN(C)[C@@H]1[C@H](C)Oc1cc(-n2ccc(C(=O)N[C@@H]3CCOC3)n2)nc(-c2noc3c2CCC[C@@]32CCCc3sc(N)c(C#N)c32)n1 [II-197] | 1 nM | 1 nM | 8 nM |  |
| C[C@H](Oc1cc(-c2ccn(Cc3ncco3)n2)nc(-c2noc3c2CCC[C@@]32CCCc3sc(N)c(C#N)c32)n1)[C@@H]1CCCN1C [II-128] | 2 nM | 417 nM | 46 nM |  |
| CC(C)NC(=O)Cc1ccn(-c2cc(O[C@@H](C)[C@@H]3CCCN3C)nc(-c3noc4c3CCC[C@@]43CCCc4sc(N)c(C#N)c43)n2)n1 [II-182] | 1 nM | 3 nM | 32 nM |  |
| COCCNC(=O)c1ccn(-c2cc(O[C@@H](C)[C@@H]3[C@@H](OC)CCN3C)nc(-c3noc4c3CCC[C@@]43CCCc4sc(N)c(C#N)c43)n2)n1 [II-200] | 1 nM | 3 nM | 8 nM |  |
| COCCNC(=O)c1ccn(-c2cc(O[C@@H](C)[C@@H]3CCCN3C)nc(-c3noc4c3CCC[C@@]43CCCc4sc(N)c(C#N)c43)n2)n1 [II-195] | 1 nM | 4 nM | 37 nM |  |
| C[C@H](Oc1cc(N2CCNC[C@@]23CCOC3)nc(-c2onc3c2CCC[C@@]32CCCc3sc(N)c(C#N)c32)n1)[C@@H]1CCCN1C [I-13] | 7 nM | 4280 nM | 294 nM |  |

| Structure (SMILES) | IC50 [1] | IC50 [2, 4] | IC50 [3] | IC50 [2, 5] |
| --- | --- | --- | --- | --- |
| C[C@H](NC(=O)c1ccn(-c2cc(O[C@@H](C)[C@@H]3CCCN3C)nc(-c3noc4c3CCC[C@@]43CCCc4sc(N)c(C#N)c43)n2)n1)c1ccccn1 [II-191] | 2 nM | 3 nM | 10 nM |  |
| C[C@H](Oc1cc(-n2cncn2)nc(-c2onc3c2CCC[C@@]32CCCc3sc(N)c(C#N)c32)n1)[C@@H]1CCCN1C [I-18] | 2 nM | 179 nM | 72 nM |  |
| C[C@H](Oc1cc(-n2cc3ccn([C@@H]4CCOC4)c(=O)c3n2)nc(-c2noc3c2CCC[C@@]32CCCc3sc(N)c(C#N)c32)n1)[C@@H]1CCCN1C [II-203] | 2 nM | 5 nM | 18 nM |  |
| C[C@H](Oc1nc(-c2noc3c2CCC[C@@]32CCCc3sc(N)c(C#N)c32)nc(N2CCN(C)C3(CC3)C2)c1Cl)[C@@H]1C[C@@H](F)CN1C [II-176] | 15 nM | 1640 nM | 4940 nM |  |
| CCN1CCN(c2cc(O[C@@H](C)[C@@H]3C[C@@H](F)CN3C)nc(-c3noc4c3CCC[C@@]43CCCc4sc(N)c(C#N)c43)n2)CC12CC2 [II-185] | 21 nM | 510 nM | 2420 nM |  |
| C[C@H](Oc1cc(N2CCOC2=O)nc(-c2noc3c2CCC[C@@]32CCCc3sc(N)c(C#N)c32)n1)[C@@H]1CCCN1C [II-143] | 2 nM |  | 48 nM | 25 nM |
| CO[C@@H]1C[C@@H]([C@H](C)Oc2cc(N3CCN(C)C4(CC4)C3)nc(-c3noc4c3CCC[C@@]43CCCc4sc(N)c(C#N)c43)n2)N(C)C1 [II-152] | 7 nM | 926 nM | 4230 nM |  |
| C[C@H](Oc1cc(-n2cc(C(=O)N(C)C)nn2)nc(-c2noc3c2CCC[C@@]32CCCc3sc(N)c(C#N)c32)n1)[C@@H]1CCCN1C [II-132] | 2 nM | 324 nM | 319 nM |  |
| C[C@H](Oc1cc(-n2ccc(-c3cn([C@H]4CCOC4)nn3)n2)nc(-c2noc3c2CCC[C@@]32CCCc3sc(N)c(C#N)c32)n1)[C@@H]1CCCN1C [II-212] | 2 nM | 1 nM | 19 nM |  |
| C[C@H](Oc1cc(C2=CCNCC2)nc(-c2noc3c2CCC[C@@]32CCCc3sc(N)c(C#N)c32)n1)[C@@H]1CCCN1C [II-164] | 2 nM | 40 nM | 1500 nM |  |
| [2H]C([2H])([2H])N1C[C@H](F)C[C@H]1[C@H](C)Oc1cc(N2CCN(C([2H])([2H])[2H])C3(CC3)C2)nc(-c2noc3c2CCC[C@@]32CCCc3sc(N)c(C#N)c32)n1 [II-207] | 6 nM | 287 nM | 1080 nM |  |
| C[C@H](Oc1cc(-n2ccc(C3(O)COC3)n2)nc(-c2noc3c2CCC[C@@]32CCCc3sc(N)c(C#N)c32)n1)[C@@H]1CCCN1C [II-189] | 2 nM | 19 nM | 51 nM |  |
| CO[C@H]1CCN(C)[C@@H]1[C@H](C)Oc1cc(-n2ccc(C(N)=O)n2)nc(-c2noc3c2CCC[C@@]32CCCc3sc(N)c(C#N)c32)n1 [II-201] | 1 nM | 6 nM | 20 nM |  |
| C[C@H](Oc1cc(N2CCNC[C@]23CCOC3)nc(-c2onc3c2CCC[C@@]32CCCc3sc(N)c(C#N)c32)n1)[C@@H]1CCCN1C [I-12] | 2 nM | 3120 nM | 218 nM |  |
| C[C@H]1CNCCCN1c1cc(-n2ccnc2)nc(-c2noc3c2CCC[C@@]32CCCc3sc(N)c(C#N)c32)n1 [II-142] | 5 nM | 10800 nM | 6110 nM |  |
| C[C@H](Oc1cc(N2CCNC3(CC3)C2)nc(-c2noc3c2CCC[C@@]32CCCc3sc(N)c(C#N)c32)n1)[C@@H]1C[C@@H](F)CN1C [II-165] | 3 nM | 166 nM | 437 nM |  |
| CO[C@H]1CCN(C)[C@@H]1[C@H](C)Oc1cc(-n2ccc(C(=O)N(C)C3COC3)n2)nc(-c2noc3c2CCC[C@@]32CCCc3sc(N)c(C#N)c32)n1 [II-199] | 1 nM | 5 nM | 17 nM |  |
| CO[C@H]1CCN(C)[C@@H]1[C@H](C)Oc1cc(-n2ccc(C(=O)N[C@@H](C)c3ccccn3)n2)nc(-c2noc3c2CCC[C@@]32CCCc3sc(N)c(C#N)c32)n1 [II-196] | 1 nM | 2 nM | 9 nM |  |
